Measurements reported in patent US20110070232A1, “Combination Therapy with an Antitumor Alkaloid” (Pharma Mar, S.A., priority 2008, published 2011).
pIC50: −log10 of the molar value. Read-outs that look alike come from different tables or passages of the source.

Legend:
MIA PaCa-2 tumors = format: in vivo, mice; details: mg/kg/day: PM00104 0.90 IV
From the text: Female athymic nude mice (Harlan Sprague Dawley, Madison, Wis.) were utilized for all experiments. Animals were housed in ventilated rack caging with food and water ad libitum. The mice were acclimated for at least 5 days prior to tumor implantation with a tumor cell suspension.
The tumor model used in these studies was MIAPaCA-2 cell line, which was obtained from the ATCC (Manassas, Va.).
Each animal was implanted subcutaneously (SC) on the right flank, using a trochar, with 1×10^7 MIAPaCA-2 cells, from in vitro passage 18, in a 0.2 mL suspension of 50% Matrigel/50% serum free medium, without antibiotics. Matrigel is a biological extracellular matrix that is liquid at 4° C. and solid at 37° C., and it promotes tumor growth by maintaining the cells in close association in a localized area. Bacterial cultures were performed on aliquots of the cells prepared for implantation.
Tumor measurements were determined by using Vernier calipers. The formula to calculate volume for a prolate ellipsoid was used to estimate tumor volume (mm^3) from 2-dimensional tumor measurements: Tumor volume (mm^3)=[L×W^2]÷2, where L is the length and it is the longest diameter in mm, and W is the width and it is the shortest diameter in mm of a tumor. Assuming unit density, volume was converted to weight (i.e., 1 mm^3=1 mg).
Treatments were initiated on DPI (Day Post Implantation) 13. In these experiments, the combination therapy groups were treated by co-administering the two drugs at the same time, with no attempt to sequence the treatments.
(§1) Tumor size measurements were recorded twice weekly from the treatment initiation until the termination of the study.
(§2) Mean, standard deviation and standard error of the mean were determined for tumor volume for all animal groups at all assessments. Student's t test was performed on tumor volumes at each measurement day, including at the end of the study, to determine whether there were any statistically significant differences between combination treatment groups and single monotherapy treatment groups.
The definition and criteria for the evaluation of potentiation and the degree of additivity for the combination therapy were as follows:
Additivity was determined as discussed above by comparing the % of tumor growth inhibition of the monotherapy groups versus those of the combination group as follows: • 1. Determine the % of tumor growth inhibition, as 100-% T/C, for each of the drugs administered as monotherapy at the doses used in the combinations. % T/C was obtained by comparing the mean tumor weight in the treatment groups (T) to the mean tumor weight in the control group (C) (T/C×100%). • 2. The two scores were added together to determine the “expected response” if each agent produced the same response as it did when administered as monotherapy. • 3. This “expected response” was subtracted from the % of tumor growth inhibition determined for the combination therapy group: • a. […] If the resulting number was close to zero, the effect of combining the two drugs was determined as additive. • c.

[1] = system: MCF-7 (breast cancer) cell line; test: IC50 determination, MIT (tetrazolium) assay, 72 h (Example 18); format: cell-based; details: Homo sapiens, MCF7; MCF-7, 72 hours of drug exposure
Experimental: (§3) Before plating, cell cultures were trypsinized and cell number estimated using an automated flow cytometer.
(§4) Cells were harvested and seeded in 96 well microtiter plates at the appropriate cell density (5,000-10,000 cells) in 150 μL of media and incubated for 24 hours to allow the cells to attach before drug addition.
(§5) After the incubation period (72 hours), 50 μL of MIT solution was added to each microtiter well and incubated for further 8 hours at 37° C. The culture medium was then removed and 50 μl, of DMSO were added to dissolve the MIT crystals. Optical densities were read at 540 nm on spectrophotometer microplate reader.
(§6) IC50 values were calculated from an average of two to four assays for each of the test agents.

[2] = system: MDA-MB-231 (breast cancer) cell line; test: as above; format: cell-based; details: Homo sapiens; MDA-MB-231, 72 hours of drug exposure
Experimental: as §3, §4, §5, §6

[3] = system: 5637 human bladder carcinoma cell line; test: IC50 determination, MTS assay, 72 h (Example 2); format: cell-based; details: 72 hours of drug exposure
Experimental: (§7) The following agents were evaluated in combination with PM00104: gemcitabine (Gemzar®) and cisplatin. The human bladder carcinoma cell lines selected for this assay were the following: 5637 and UM-UC-3 cell lines. 5637 cell line was grown in RPMI 1640 medium supplemented with 10% FBS, 1.5 g/L sodium bicarbonate, 4.5 g/L glucose, 10 mM HEPES, 1 mM sodium pyruvate, and 2 mM L-glutamine. UM-UC-3 cell line was grown in MEM Eagle's medium supplemented with 10% FBS and 2 mM L-glutamine.
(§8) a. […] It was used the same methodology as those disclosed in Example 1.
(§9) IC50 values were calculated from an average of three to four assays for each of the test agents.

[4] = system: UM-UC-3 human bladder carcinoma cell line; test: IC50 determination, MTS assay, 72 h (Example 2); format: cell-based
Experimental: as §7, §8, §9

Hs746T tumors = format: in vivo, mice; details: mg/kg/day: PM00104 0.90 IV, cisplatin 5 IP, paclitaxel 10 IP
From the text: Female athymic nude mice (Harlan Sprague Dawley, Madison, Wis.) were utilized for all experiments. Animals were housed in ventilated rack caging with food and water ad libitum. The mice were acclimated for at least 5 days prior to tumor implantation with a tumor cell suspension. The Vehicle Control group contained 11 mice, groups 2-4 contained 7 mice and the rest of groups contained 8 mice.
The tumor model used in these studies was Hs746T cell line, which was obtained from the ATCC (Manassas, Va.).
Hs746T cells were grown in DMEM supplemented with 10% FBS, 1.5 g/L sodium bicarbonate, 4.5 g/L glucose, and 4 mM L-glutamine. Each animal was implanted SC on the right flank, using a trochar, with 5×10^6 Hs746T cells, from in vitro passage 18, in a 0.2 mL suspension of 50% Matrigel and 50% serum free medium, without antibiotics. Bacterial cultures were performed on aliquots of the cells prepared for implantation.
Treatments were initiated on DPI 16.
as §1, §2

[5] = day 13, gemcitabine 140 IP, erlotinib 100 PO
[6] = day 15, gemcitabine 140 IP, erlotinib 100 PO
[7] = day 19, gemcitabine 140 IP, erlotinib 100 PO
[8] = day 22, gemcitabine 140 IP, erlotinib 100 PO
[9] = day 27, gemcitabine 140 IP, erlotinib 100 PO
[10] = day 29, gemcitabine 140 IP, erlotinib 100 PO
[11] = day 33, gemcitabine 140 IP, erlotinib 100 PO
[12] = day 36, gemcitabine 140 IP, erlotinib 100 PO

SMILES | % Inhibition (MIA PaCa-2 tumors; [5]) [%] | % T/C on day (MIA PaCa-2 tumors; [5]) [%] | % Inhibition (MIA PaCa-2 tumors; [6]) [%] | % T/C on day (MIA PaCa-2 tumors; [6]) [%] | % Inhibition (MIA PaCa-2 tumors; [7]) [%] | % Inhibition (MIA PaCa-2 tumors; [8]) [%] | % T/C on day (MIA PaCa-2 tumors; [8]) [%] | % T/C on day (MIA PaCa-2 tumors; [9]) [%] | % Inhibition (MIA PaCa-2 tumors; [10]) [%] | % T/C on day (MIA PaCa-2 tumors; [10]) [%] | % T/C on day (MIA PaCa-2 tumors; [11]) [%] | % Inhibition (MIA PaCa-2 tumors; [12]) [%] | % T/C on day (MIA PaCa-2 tumors; [12]) [%] | pIC50 [1] | pIC50 [2] | % Inhibition (Hs746T tumors; day 16) [%] | % T/C on day (Hs746T tumors; day 16) [%] | % Inhibition (Hs746T tumors; day 20) [%] | % T/C on day (Hs746T tumors; day 20) [%] | % Inhibition (Hs746T tumors; day 23) [%] | further results
Nc1ccn([C@@H]2O[C@H](CO)[C@@H](O)C2(F)F)c(=O)n1 [Gemcitabine, gemcitabine] | 0.0 | 100.0 | −5.7 | 105.7 | 3.0 | 14.5 | 85.5 | 89.5 | 13.7 | 86.3 | 87.7 | −0.3 | 100.3 | 8.89 | 7.62 | – | – | – | – | – | % T/C on day (MIA PaCa-2 tumors; [7]): 97.0%; IC50 ([3]; Homo sapiens, read-out: IC50): 0.019 µg/mL; IC50 ([4]; Homo sapiens, UMUC3, 72 hours of drug exposure, read-out: IC50): 0.022 µg/mL
N.N.[Cl][Pt][Cl] [Cisplatin, cisplatin] | – | – | – | – | – | – | – | – | – | – | – | – | – | – | – | 3.2 | 96.8 | 39.5 | 60.5 | 48.3 | % T/C on day (Hs746T tumors; day 23): 51.7%; % Inhibition (Hs746T tumors; day 26): 55.8%; % T/C on day (Hs746T tumors; day 26): 44.2%; % Inhibition (Hs746T tumors; day 29): 56.7%; % T/C on day (Hs746T tumors; day 29): 43.3%; % Inhibition (Hs746T tumors; day 33): 53.3%; % T/C on day (Hs746T tumors; day 33): 46.7%; % Inhibition (Hs746T tumors; day 36): 53.7%; % T/C on day (Hs746T tumors; day 36): 46.3%; IC50 [3]: 2.4 µg/mL; IC50 ([4]; 72 hours of drug exposure): 0.53 µg/mL
C#Cc1cccc(Nc2ncnc3cc(OCCOC)c(OCCOC)cc23)c1 [erlotinib] | −3.3 | 103.3 | −15.4 | 115.4 | −22.5 | 3.6 | 96.4 | 96.0 | 3.7 | 96.4 | 102.7 | −6.0 | 106.0 | – | – | – | – | – | – | – | % Inhibition (MIA PaCa-2 tumors; day 13, erlotinib 50 PO): −1.5%; % T/C on day (MIA PaCa-2 tumors; day 13, erlotinib 50 PO): 101.5%; % Inhibition (MIA PaCa-2 tumors; day 15, erlotinib 50 PO): 3.3%; % T/C on day (MIA PaCa-2 tumors; day 15, erlotinib 50 PO): 96.7%; % Inhibition (MIA PaCa-2 tumors; day 19, erlotinib 50 PO): −13.2%; % T/C on day (MIA PaCa-2 tumors; day 19, erlotinib 50 PO): 113.2%; % Inhibition (MIA PaCa-2 tumors; day 22, erlotinib 50 PO): −4.4%; % T/C on day (MIA PaCa-2 tumors; day 22, erlotinib 50 PO): 104.4%; % Inhibition (MIA PaCa-2 tumors; day 27, erlotinib 50 PO): −48.6%; % T/C on day (MIA PaCa-2 tumors; day 27, erlotinib 50 PO): 148.6%; % Inhibition (MIA PaCa-2 tumors; [9]): 4.0%; % Inhibition (MIA PaCa-2 tumors; day 29, erlotinib 50 PO): −32.0%; % T/C on day (MIA PaCa-2 tumors; day 29, erlotinib 50 PO): 132.0%; % Inhibition (MIA PaCa-2 tumors; day 33, erlotinib 50 PO): −15.4%; % T/C on day (MIA PaCa-2 tumors; day 33, erlotinib 50 PO): 115.3%; % Inhibition (MIA PaCa-2 tumors; [11]): −2.7%; % Inhibition (MIA PaCa-2 tumors; day 36, erlotinib 50 PO): −17.7%; % T/C on day (MIA PaCa-2 tumors; day 36, erlotinib 50 PO): 117.7%
CC(=O)O[C@H]1C(=O)[C@@]2(C)[C@H]([C@H](OC(=O)c3ccccc3)[C@]3(O)C[C@H](OC(=O)[C@H](O)[C@@H](NC(=O)c4ccccc4)c4ccccc4)C(C)=C1C3(C)C)[C@]1(OC(C)=O)CO[C@@H]1C[C@@H]2O [paclitaxel] | – | – | – | – | – | – | – | – | – | – | – | – | – | 7.15 | 8.22 | 3.6 | 96.4 | 36.7 | 63.3 | 52.3 | % T/C on day (Hs746T tumors; day 23): 47.7%; % Inhibition (Hs746T tumors; day 26): 65.3%; % Inhibition (Hs746T tumors; day 29): 78.6%; % T/C on day (Hs746T tumors; day 29): 21.4%; % Inhibition (Hs746T tumors; day 33): 76.8%; % T/C on day (Hs746T tumors; day 33): 23.2%; % Inhibition (Hs746T tumors; day 36): 69.9%; % T/C on day (Hs746T tumors; day 36): 30.1%
